Among the data in patent US10882837B2, “Amide compounds and use thereof” (ALPHALA CO., LTD., priority 2017, dated 2021) are IC50 values, retold here.

One assay addresses T1, glucagon receptor (GCGR) (Homo sapiens, UniProt P47871).
T1 construct: expressed in transfected cells; host or cells: CHO-K1
Kind of assay: Glucagon cAMP inhibition assay (Cisbio cAMP Dynamic 2 HTRF). The format is cell-based. Conditions: GCGR overexpressed CHO-K1 cells or human primary hepatocytes (not specified); glucagon at EC50. In short, it runs like this: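 GCGR-overexpressing CHO-K1 cells or human primary hepatocytes in HBSS with 0.1% BSA and 800 nM IBMX, pre-incubated 30 min with compound (1% DMSO final), then stimulated 30 min at room temperature with glucagon at its EC50. cAMP measured by HTRF after 60 min lysis; IC50 from non-linear regression.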

For assay [1], the target named is T2, GCGR (Homo sapiens, UniProt P47871). Kind of assay: I125-glucagon binding assay (competition, GCGR membrane fractions). More on the design: expressed in transfected cells; host or cells: CHO-K1. The settings on record: competition with I125-glucagon 0.0625 nM; membrane fractions from GCGR overexpressed CHO-K1 cells. In short, it runs like this: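 Membranes from CHO-K1 cells overexpressing GCGR (7.5 µg/well) were preincubated 5 min with serially diluted compound in 50 mM Tris pH 7.4, 0.5% BSA. I125-glucagon was then added at 0.0625 nM final and incubated 30 min at 25 °C. After filtration, bound radioactivity was counted and IC50 derived by non-linear regression.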
Target sequence in this assay (P47871 26-477, species assumed): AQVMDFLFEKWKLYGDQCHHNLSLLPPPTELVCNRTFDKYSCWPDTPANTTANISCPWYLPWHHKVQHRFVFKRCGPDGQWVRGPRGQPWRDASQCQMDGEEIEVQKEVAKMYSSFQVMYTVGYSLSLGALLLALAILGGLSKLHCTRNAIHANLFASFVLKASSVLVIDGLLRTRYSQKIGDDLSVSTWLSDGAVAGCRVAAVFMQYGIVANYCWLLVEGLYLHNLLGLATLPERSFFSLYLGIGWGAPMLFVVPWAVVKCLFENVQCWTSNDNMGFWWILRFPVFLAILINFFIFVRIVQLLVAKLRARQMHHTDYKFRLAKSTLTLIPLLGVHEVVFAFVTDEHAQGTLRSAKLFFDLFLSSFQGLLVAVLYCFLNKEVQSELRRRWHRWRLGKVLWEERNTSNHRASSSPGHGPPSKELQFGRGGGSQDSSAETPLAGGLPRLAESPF

Assay [2] addresses T2, GCGR. Nature of the assay: HTRF cAMP assay in primary human hepatocytes stimulated with recombinant glucagon. The format is cell-based. Set-up: endogenous in cells; host or cells: primary human hepatocytes. The protocol:
Downstream secondary messenger eAMP induced by glucagon was detected by Cisbio cAMP Dynamic 2 kit. Testing compounds were each prepared as a dimethyl sulfoxide (DMSO) solution at the concentration of 10 mM. To evaluate the potency of compounds in inhibiting the cAMP production, glucagon receptor (GCGR) overexpressed CHO-K1 cells or human primary hepatocytes were treated with compounds with a serial dilution. The cells were re-suspended in Hank's Balanced Salt solution (HBSS) contained 0.1% (w/v) bovine serum albumin and 800 nM 3-isobutyl-1-methylxanthine (IBMX) and seeded into low volume, 384 wells white plate. The diluted compounds were then added into the plate for 30 minutes pre-incubation where the final DMSO concentration was 1%. The cells were stimulated with glucagon at the concentration equaled to EC50 (an indicium of the concentration of a drag that gives half-maximal response) for 30 minutes at room temperature. After incubation, lysis buffer contain cAMP antibody and fluorescence acceptor were added into each well for additional 60 minutes incubation.
The HTRF cAMP assay was performed by following the manufacturer guidance. Primary human hepatocytes, pre-incubated with tested compounds at various concentrations, were stimulated with recombinant glucagon and the IC50 values were determined by the non-linear regression based on the amount of cAMP production.
Target sequence in this assay (P47871 26-477): as the sequence (P47871 26-477, species assumed) above

T1 sequence (P47871 26-477, species assumed): as above

For orientation: IC50 means the point on the concentration scale where inhibition reaches its midpoint. With `CC(C)[C@H](Nc1ccc(C(=O)NCCC(=O)O)cn1)c1ccc(-c2nc3ccccc3o2)cc1` [Compound 4-30, (S)-3-(6-((1-(4-(benzo[d]oxazol-2-yl)phenyl)-2-methylpropyl)amino)nicotinamido)propanoic acid], the figures for the IC50 against glucagon receptor (GCGR), on GCGR [1] and on GCGR [2] were 2380 nM, 41.8 nM and 53 nM, respectively.
For `CC(C)[C@H](Nc1ccc(C(=O)NCCC(=O)O)cn1)c1ccc(-c2nc3ccccc3s2)cc1` [Compound 4-28, (S)-3-(6-((1-(4-(benzo[d]thiazol-2-yl)phenyl)-2-methylpropyl)amino)nicotinamido)propanoic acid] the same measures were 2690 nM, 47.7 nM and 62 nM.
For `CCC(C)[C@H](Nc1ccc(C(=O)NCCC(=O)O)cc1)c1ccc(-c2nnc(-c3ccccc3)o2)cc1` (stereo partly drawn) [Compound 1-49, 3-(4-(((1S)-2-methyl-1-(4-(5-phenyl-1,3,4-oxadiazol-2-yl)phenyl)butyl)amino)benzamido)propanoic acid], in that order: 2050 nM, 92 nM and 19 nM.
With `CCC(C)[C@H](Nc1ccc(C(=O)NCCC(=O)O)cc1)c1ccc(-c2noc(-c3ccccc3)n2)cc1` (stereo partly drawn) [Compound 2-19, 3-(4-(((1S)-2-methyl-1-(4-(5-phenyl-1,2,4-oxadiazol-3-yl)phenyl)butyl)amino)benzamido)propanoic acid], the IC50 came out at 473 nM against glucagon receptor (GCGR), 49 nM at GCGR [1] and 15 nM at GCGR [2].
Consider `CCOC(=O)CCNC(=O)c1ccc(N[C@H](CC(C)C)c2ccc(-c3nc4ccccc4o3)cc2)cc1` [Compound 4-13, ethyl (R)-3-(4-((1-(4-(benzo[d]oxazol-2-yl)phenyl)-3-methylbutyl)amino)benzamido)propanoate], for which the figures for the IC50 on glucagon receptor (GCGR) and on GCGR [1] were 361 nM and 31600 nM, respectively.
For `CCC(C)[C@@H](Nc1ccc(C(=O)NCCC(=O)O)cc1)c1ccc(-c2nnc(C(F)(F)F)o2)cc1` (stereo partly drawn) [Compound 1-37, 3-(4-(((1R)-2-methyl-1-(4-(S-(trifluoromethyl)-1,3,4-oxadiazol-2-yl)phenyl)butyl)amino)benzamido)propanoic acid] the same measures were 3260 nM and 1640 nM.
For `CC(C)CC(Nc1ccc(C(=O)NCCC(=O)O)cc1)c1ccc(-c2nnc(-c3ccc(F)cc3)o2)cc1` (stereo not shown) [Compound 1-28, 3-(4-((1-(4-(5-(4-fluorophenyl)-1,3,4-oxadiazol-2-yl)phenyl)-3-methylbutyl)amino)benzamido)propanoic acid] the same measures were 4760 nM and 563 nM.
For `CC(C)C(Nc1ccc(C(=O)NCCC(=O)O)cc1)c1ccc(-c2nnc(C(F)(F)F)o2)cc1` (stereo not shown) [Compound 1-4, 3-(4-((2-Methyl-1-(4-(5-(trifluoromethyl)-1,3,4-oxadiazol-2-yl)phenyl)propyl)amino)benzamido)propanoic acid] the same measures were over 30000 nM and 433 nM.
Take `CCCC[C@H](Nc1ccc(C(=O)NCCC(=O)O)cc1)c1ccc(-c2noc(-c3ccccn3)n2)cc1` [Compound 2-38, (S)-3-(4-((1-(4-(5-(pyridin-2-yl)-1,2,4-oxadiazol-3-yl)phenyl)pentyl)amino)benzamido)propanoic acid]: the results for the IC50 on glucagon receptor (GCGR) and on GCGR [1] were 686 nM and 226 nM, respectively.
For `CCCC[C@H](Nc1ccc(C(=O)NCCC(=O)OCC)cc1)c1ccc(-c2nc3ccccc3o2)cc1` [Compound 4-15, ethyl (S)-3-(4-((1-(4-(benzo[d]oxazol-2-yl)phenyl)pentyl)amino)benzamido)propanoate] the same measures were 43 nM and 350 nM.
Consider `CCC(C)C(Nc1ccc(C(=O)NCCC(=O)O)cc1)c1ccc(-c2nnc(-c3ccc(F)cc3)o2)cc1` (stereo not shown) [Compound 1-30, 3-(4-((1-(4-(5-(4-fluorophenyl)-1,3,4-oxadiazol-2-yl)phenyl)-2-methylbutyl)amino)benzamido)propanoic acid], for which the figures for the IC50 at glucagon receptor (GCGR) and at GCGR [1] were 3410 nM and 347 nM, respectively.
With `CCC(C)[C@H](Nc1ccc(C(=O)NCCC(=O)O)cc1)c1ccc(-c2nnc(C(F)(F)F)o2)cc1` (stereo partly drawn) [Compound 1-36, 3-(4-(((1S)-2-methyl-1-(4-(5-(trifluoromethyl)-1,3,4-oxadiazol-2-yl)phenyl)butyl)amino)benzamido)propanoic acid], the values for the IC50 at glucagon receptor (GCGR) and at GCGR [1] were 2040 nM and 359 nM, respectively.
